From US10292396B2, “Methods for assessing repellant quality of organic materials and methods and compositions for repelling arthropods” (priority 2011, dated 2019)

Key:
Aedes aegypti [1] = details: 25 μmol/cm^2, Katritzky data; cited from earlier work
acetylcholoinesterase = acetylcholoinesterase (Homo sapiens, UniProt P22303); details: in humans, recent study; cited from earlier work
[2] = in vivo; cited from earlier work
Aedes aegypti [3] = experiment: protection time assay for mosquito repellency; format: in vivo; details: standardized to 25 μmol/cm^2; assigned, not measured
Method: In two recent studies, 34 N-acylpiperdine and 38 carboxamide mosquito repellent candidates were synthesized and compared for their effectiveness. […] The mode of repellency for all of these compounds is unknown. As the N-acylpiperdines and some of the carboxamides are larger and likely have a lower vapor pressure than DEET, it is possible that the increased protection times of these compounds is due to a slower evaporation rate.
As these odors were tested using different approaches, a single unit of measure was needed to standardize them for training. Since the largest proportion of odors was measured in protection time, all odors were converted into this single standard of protection time in days to match with the Katritzky data at a concentration of 25 μmol/cm^2. Picaridin, which is believed to have a similar protection to DEET, was given the same protection time as DEET (17.5 days). […] While this is a very rough approximation, it is sufficiently accurate for training.

[4] = test system: trichoid sensillum housed odor receptor, which is also activated by DEET; details: compared with DEET; cited from earlier work
insects = details: in vivo; cited from earlier work

Sequence of acetylcholoinesterase (P22303 32-614): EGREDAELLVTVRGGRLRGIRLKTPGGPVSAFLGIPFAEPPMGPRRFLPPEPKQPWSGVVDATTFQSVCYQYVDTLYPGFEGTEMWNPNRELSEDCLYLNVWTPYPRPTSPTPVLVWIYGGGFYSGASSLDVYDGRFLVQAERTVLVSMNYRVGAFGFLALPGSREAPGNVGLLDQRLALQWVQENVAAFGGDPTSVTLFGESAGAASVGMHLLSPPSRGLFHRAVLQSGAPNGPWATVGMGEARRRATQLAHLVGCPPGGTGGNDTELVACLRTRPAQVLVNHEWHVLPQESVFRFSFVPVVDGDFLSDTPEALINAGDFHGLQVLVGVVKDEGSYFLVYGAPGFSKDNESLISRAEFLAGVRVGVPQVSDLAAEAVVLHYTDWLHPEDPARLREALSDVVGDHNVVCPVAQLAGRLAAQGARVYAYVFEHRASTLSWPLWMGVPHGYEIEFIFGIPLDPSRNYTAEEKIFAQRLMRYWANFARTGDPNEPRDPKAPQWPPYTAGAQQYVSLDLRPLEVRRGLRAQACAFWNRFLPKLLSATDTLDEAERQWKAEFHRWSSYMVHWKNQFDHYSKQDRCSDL

In the case of `CCN(CC)C(=O)c1cccc(C)c1` [DEET, N,N-diethyl-3-methylbenzamide], the protection time (Aedes aegypti [1]) is listed as 17.5 days, the inhibition of acetylcholinesterase (acetylcholoinesterase) is listed as “inhibit” and the irritation [2] is listed as “act as an irritant”.
For `CC12CCC(CC1)C(C)(C)O2` [Eucalyptol], the “protection time given for training (same as DEET, very rough approximation)” value (shortened to “protection time given for training”) (Aedes aegypti [3]) is listed as 17.5 days and the “activation of DEET-activated odor receptor / DEET receptive neuron” value [4] is listed as “more strongly than DEET”.
In the case of `CCC(C)OC(=O)N1CCCCC1CCO` (stereo not shown) [Icaridin], the “effectiveness at repelling insects compared with DEET” value (insects) is given as “as effective as DEET”, the “protection time given for training” value (Aedes aegypti [3]) is given as 17.5 days and the irritation [2] is given as “less irritating than DEET”.
In the case of `CC(C)[C@]12CC(=O)[C@H](C)[C@H]1C2` [alpha-thujone], the “protection time given for training” value (Aedes aegypti [3]) is reported as 17.5 days.
With `CC1C(=O)CC2(C(C)C)CC12` (stereo not drawn) [beta-thujone] the “protection time given for training” value (Aedes aegypti [3]) was 17.5 days.
For `C=CC(C)(O)CCC=C(C)C` (stereo not shown) [linalool], the “protection time given for training” value (Aedes aegypti [3]) is given as 17.5 days and the “activation of DEET-activated odor receptor / DEET receptive neuron” value [4] is given as “more strongly than DEET”.
For `CC(C)[C@]12CC(=O)[C@H](C)[C@H]1C2` [thujone], the “activation of DEET-activated odor receptor / DEET receptive neuron” value [4] is given as “more strongly than DEET”.
